Laboratory results published in patent US8017649B2, “Flavonoid compounds and uses thereof” (Howard Florey Institute of Experimental Physiology and …, priority 2005, dated 2011).
“Also recorded” adds a separate entry of the source.

What was measured:
rat aortic rings = assay: Relaxation of rat aortic rings in response to A23187 or isoprenaline; assay type: cell-based; settings: 0.1 mM, absence or presence of cholinesterase
[1] = Solubility in aqueous solution; assay type: physicochemical; settings: water
[2] = test system: endothelium intact aortic rings; assay: Effect on ACh relaxation of precontracted rat aortic rings; assay type: cell-based; settings: substance alone
Procedure: (§1) After wash out and re-equilibration for 30 min, the aortic rings were then submaximally precontracted with PE and U46619, which were used to produce an active tension of 45-60% of the KPSS-induced maximum contraction. When investigating the effects of the flavonoids, flavonol, flavone-3-hemiadipate (F3HA), 3′, 4′-dihydroxyflavone, 3′,4′-dihydroxyflavonol, 3′,4′-dihydroxyflavone-3-hemiadipate (DiOHF3HA), and flavone-3-phosphate (F3P) on vasorelaxant responses, rings were incubated with one of the compounds for 20 mins before they were precontracted submaximally, followed by a cumulative-concentration response curve to ACh (100 nM-10 μM) or SNP ([…]). In experiments using F3P 1000U/L phosphatase was used in some experiments to cleave the phosphate. Some experiments were conducted in the presence and absence of butyryl cholinesterase (BuCHE, 1000 U/L) to cleave the adipate in DiOHF3HA and F3HA.

aortic rings = assay: Effect on SNP relaxation of precontracted rat aortic rings; assay type: cell-based
Procedure: as §1

[3] = test system: superoxide anions generated in rat aorta; assay: Superoxide anion production in rat isolated aortic segments (lucigenin chemiluminescence, NADPH); assay type: cell-based
Procedure: Superoxide anion production in rat isolated aortic segments was determined using lucigenin chemiluminescence. Aortic rings were prepared as described above and then placed in ice-cold Krebs-(N-[2-Hydroxyethyl]piperazine-N′-[2-ethanesulfonic acid] (HEPES buffer) (composition (mM); NaCl 99.0, KCl 4.7, KH2PO4 1.0, MgSO4·7H2O 1.2, D-glucose 11.0, NaHCO3 25.0, CaCl2·2H2O 2.5, Na-HEPES 20.0). Aortic rings were pre-incubated for 45 minutes at 37° C. with a pH 7.4, in Krebs-HEPES buffer containing diethylthiocarbamic acid (DETCA, 10^−3 M) to inactivate superoxide dismutase and β-nicotinamide adenine dinucleotide phosphate (NADPH, 10^−4 M) as a substrate for NADPH oxidase and either 3′,4′-dihydroxyflavonol (10^−4 M) as a positive control, vehicle, 3-hydroxyflavone-3-hemiadipate, 3′,4′-dihydroxy-3-hemiadipate, 3-hydroxyflavone-3-phosphate (10^−8-10^−4 M). Background photon emission was measured for 12 cycles in a 96-well Optiplate containing 0.3 ml per well of Krebs-HEPES buffer together with lucigenin (5×10^−5 M) and vehicle or flavonoid (10^−8-10^−4 M). Each cycle was counted every one minute. After background reading was completed the incubated aortic rings were transferred to the appropriate wells and photon emission was recounted as described above. The tissue was then placed in a 65° C. oven for 48 hours to allow superoxide production to be normalised to dry tissue weight.
The effects of vehicle, 3′,4′-dihydroxyflavone-3-hemiadipate (21) (DiOHF3HA, 10^−8 M-10^−4 M) and DiOHF (10^−4 M) in the presence and absence of Butyryl cholinesterase (BuCHE), 100, 300 and 1000 U/L) on the level of superoxide anions generated in rat isolated aortic segments in the presence of NADPH was expressed as a percentage of control. The method used was as described above except for the addition of the butyryl cholinesterase.
The effect of vehicle, 3-hydroxyflavone-3-phosphate (10^−8 to 10^−4 M) in the presence or absence of phosphatase (1000 U/L) on the level of superoxide anions generated in rat aorta in the presence of NADPH expressed as a percentage of control was determined as described above for the 3′,4′-dihydroxyflavone-3-hemiadipate.

[4] = test system: rat aorta precontracted with PE; assay: Direct relaxation of PE/U46619-precontracted rat aortic rings; assay type: cell-based
Procedure: Following testing of endothelial integrity, rings were repeatedly washed and re-equilibrated for 30 minutes before the addition of PE (10^−8−2×10^−7 M) and 9,11-dideoxy-9α, 11α-epoxymethano-prostaglandin F2α (U46619, 10^−9-10^−8 M) to produce an active force in the range of 40-60% of KPSS-induced contraction. The level of precontraction was matched between the various groups by adjusting the concentrations of PE and U46619. Cumulative concentration-response curves in the range 10^−8-10^−4 M were conducted for 3′,4′-dihydroxyflavonol, 3-hydroxyflavone-3-hemiadipate, 3′,4′-dihydroxy-3-hemiadipate, 3-hydroxyflavone-3-phosphate.
Experiments were conducted in the presence of an esterase, butyryl cholinesterase (BuCHE, 1000 U/L) for the hemiadipate derivates and a phosphatase 1000 U/L) in the case of the phosphate derivatives.
Following testing of endothelial integrity, rings were repeatedly washed and re-equilibrated for 30 minutes before the addition of PE (10^−8−2×10^−7 M) and 9,11-dideoxy-9α, 11α-epoxymethano-prostaglandin F2α (U46619, 10^−9-10^−7 M) to produce an active force in the range of 40-60% of KPSS-induced contraction. Cumulative concentration-response curves in the range 10^−7-10^−4 M were conducted for vehicle, 3′-hydroxyflavonol, F3HA, DiOHF3HA, F3P. Experiments were conducted in the presence and absence of 1000 U/L BuCHE to cleave the adipate in F3HA and DiOHF3HA. In experiments using F3P 1000 U/L phosphatase was used in some experiments to cleave the phosphate.

[5] = test system: myocardial ischaemia and reperfusion; settings: Wang et al., British Journal of Pharmacology (2004) 142, 443-452; cited from earlier work

O=C(O)CCCCC(=O)Oc1c(-c2ccc(O)c(O)c2)oc2ccccc2c1=O [DiOHF3HA, 3′,4′-dihydroxyflavone-3-hemiadipate]
relaxation in response to A23187 or isoprenaline (rat aortic rings): no effect on endothelium-dependent relaxation | solubility in aqueous solution [1]: soluble in aqueous solution, particularly water | effect on relaxant response to ACh [2]: no effect on relaxant responses to ACh or SNP | effect on relaxant response to SNP (aortic rings; in the presence of BuCHE or phosphatase): significantly increased the sensitivity of the relaxant response to SNP | effect on relaxant response to SNP (aortic rings; substance alone): no effect on relaxant responses to ACh or SNP | effect on superoxide generation ([3]; in the presence of cleaving enzyme (BuCHE for hemiadipates, phosphatase for phosphate, 1000 U/L)): concentration dependent inhibition of superoxide levels; also recorded: concentration dependent inhibitory effect; also recorded: inhibit superoxide levels produced by rat aorta | effect on superoxide generation ([3]; substance alone, no added esterase/phosphatase, up to 10^−4 M, NADPH): no inhibitory effect on superoxide generation; also recorded: no antioxidant or vascular activity | direct relaxing effect on precontracted vessels ([4]; DiOHF3HA plus 1000 U/L BuCHE): marked effect on vascular tone; also recorded: direct relaxation of pre-contracted rat aortic rings only in the presence of the esterase; also recorded: cause direct relaxation of rat aortic rings | direct relaxing effect on precontracted vessels ([4]; substance alone): no effect on PE precontracted vessels

O=c1c(O)c(-c2ccc(O)c(O)c2)oc2ccccc12 [DiOHF, 3′,4′-Dihydroxyflavonol, reference compound]
infarct and injury associated with myocardial ischaemia and reperfusion [5]: reduce Infarct and injury associated with myocardial ischaemia and reperfusion
